{"source": "paper PMC12420824", "about": "“Discovery of a selective alpha-kinase 1 inhibitor for the rare genetic disease ROSAH syndrome” (Nature Communications, 2025)", "key": {"[1]": {"target": "MUSK (Homo sapiens, UniProt O15146)", "experiment": "HotSpot kinase assay", "conditions": "read-out: % Enzyme Activity (relative to DMSO control), 10 uM"}, "[2]": {"target": "PKN3/PRK3 (Homo sapiens, UniProt Q6P5Z2)", "experiment": "HotSpot kinase assay", "conditions": "read-out: % Enzyme Activity (relative to DMSO control), 10 uM"}, "[3]": {"target": "PDK3/PDHK3 (Homo sapiens, UniProt Q15120)", "experiment": "HotSpot kinase assay", "conditions": "read-out: % Enzyme Activity (relative to DMSO control), 10 uM"}, "[4]": {"target": "TESK2 (Homo sapiens, UniProt Q96S53)", "experiment": "HotSpot kinase assay", "conditions": "read-out: % Enzyme Activity (relative to DMSO control), 10 uM"}, "[5]": {"target": "ABL1 (Homo sapiens, UniProt P00519)", "experiment": "HotSpot kinase assay", "conditions": "read-out: % Enzyme Activity (relative to DMSO control), 10 uM"}, "[6]": {"target": "AXL (Homo sapiens, UniProt P30530)", "experiment": "HotSpot kinase assay", "conditions": "read-out: % Enzyme Activity (relative to DMSO control), 10 uM"}, "[7]": {"target": "IKKb/IKBKB (Homo sapiens, UniProt O14920)", "sequence (O14920 whole entry)": "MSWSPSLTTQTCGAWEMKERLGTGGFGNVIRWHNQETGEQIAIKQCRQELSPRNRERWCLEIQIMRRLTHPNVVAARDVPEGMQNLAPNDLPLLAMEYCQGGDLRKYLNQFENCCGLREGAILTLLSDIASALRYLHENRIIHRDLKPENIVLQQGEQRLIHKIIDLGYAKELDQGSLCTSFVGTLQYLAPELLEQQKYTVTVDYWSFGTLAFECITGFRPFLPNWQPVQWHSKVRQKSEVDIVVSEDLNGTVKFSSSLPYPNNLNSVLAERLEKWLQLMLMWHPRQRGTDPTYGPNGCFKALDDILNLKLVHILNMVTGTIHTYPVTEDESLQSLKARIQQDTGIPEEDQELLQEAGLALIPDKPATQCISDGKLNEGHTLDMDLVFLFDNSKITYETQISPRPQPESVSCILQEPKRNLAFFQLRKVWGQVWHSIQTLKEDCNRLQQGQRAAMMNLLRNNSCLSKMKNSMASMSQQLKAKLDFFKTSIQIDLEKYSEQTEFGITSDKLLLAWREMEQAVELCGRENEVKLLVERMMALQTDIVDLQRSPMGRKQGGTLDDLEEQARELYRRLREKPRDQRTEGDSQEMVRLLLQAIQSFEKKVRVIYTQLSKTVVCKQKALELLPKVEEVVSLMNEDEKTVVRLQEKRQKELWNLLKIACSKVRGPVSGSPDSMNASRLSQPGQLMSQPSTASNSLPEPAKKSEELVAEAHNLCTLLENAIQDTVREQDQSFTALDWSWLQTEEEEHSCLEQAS", "experiment": "HotSpot kinase assay", "conditions": "read-out: % Enzyme Activity (relative to DMSO control), 10 uM"}, "[8]": {"target": "ALK5/TGFBR1 (Homo sapiens, UniProt P36897)", "sequence (P36897 34-503)": "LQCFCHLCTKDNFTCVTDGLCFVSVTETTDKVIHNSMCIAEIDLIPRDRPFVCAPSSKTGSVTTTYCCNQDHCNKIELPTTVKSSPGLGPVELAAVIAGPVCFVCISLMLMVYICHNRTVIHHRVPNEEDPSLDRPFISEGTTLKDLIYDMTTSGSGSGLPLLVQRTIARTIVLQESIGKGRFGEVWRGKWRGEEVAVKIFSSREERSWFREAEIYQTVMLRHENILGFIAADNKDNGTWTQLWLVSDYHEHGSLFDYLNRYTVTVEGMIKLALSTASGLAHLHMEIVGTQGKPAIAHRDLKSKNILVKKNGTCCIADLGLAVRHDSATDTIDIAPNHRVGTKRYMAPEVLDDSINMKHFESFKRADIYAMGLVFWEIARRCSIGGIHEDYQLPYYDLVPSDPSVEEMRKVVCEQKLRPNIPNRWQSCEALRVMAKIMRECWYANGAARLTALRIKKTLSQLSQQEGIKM", "experiment": "HotSpot kinase assay", "conditions": "read-out: % Enzyme Activity (relative to DMSO control), 10 uM"}, "[9]": {"target": "ARAF (Homo sapiens, UniProt P10398)", "experiment": "HotSpot kinase assay", "conditions": "read-out: % Enzyme Activity (relative to DMSO control), 10 uM"}, "[10]": {"target": "MAPKAPK5/PRAK (Homo sapiens, UniProt Q8IW41)", "experiment": "HotSpot kinase assay", "conditions": "read-out: % Enzyme Activity (relative to DMSO control), 10 uM"}, "[11]": {"target": "DMPK (Homo sapiens, UniProt Q09013)", "experiment": "HotSpot kinase assay", "conditions": "read-out: % Enzyme Activity (relative to DMSO control), 10 uM"}, "[12]": {"target": "SGK3/SGKL (Homo sapiens, UniProt Q96BR1)", "experiment": "HotSpot kinase assay", "conditions": "read-out: % Enzyme Activity (relative to DMSO control), 10 uM"}, "[13]": {"target": "NIM1 (Homo sapiens, UniProt Q8IY84)", "experiment": "HotSpot kinase assay", "conditions": "read-out: % Enzyme Activity (relative to DMSO control), 10 uM"}, "[14]": {"target": "STK16 (Homo sapiens, UniProt O75716)", "experiment": "biochemical", "conditions": "read-out: % Enzyme Activity (relative to DMSO control), 10 uM"}, "[15]": {"target": "MNK1 (Homo sapiens, UniProt Q9BUB5)", "experiment": "HotSpot kinase assay", "conditions": "read-out: % Enzyme Activity (relative to DMSO control), 10 uM"}, "[16]": {"target": "AMPK(A1/B1/G1) (Homo sapiens, UniProt Q13131)", "experiment": "HotSpot kinase assay", "conditions": "read-out: % Enzyme Activity (relative to DMSO control), 10 uM"}, "[17]": {"target": "CK1d (Homo sapiens, UniProt P48730)", "sequence (P48730 whole entry)": "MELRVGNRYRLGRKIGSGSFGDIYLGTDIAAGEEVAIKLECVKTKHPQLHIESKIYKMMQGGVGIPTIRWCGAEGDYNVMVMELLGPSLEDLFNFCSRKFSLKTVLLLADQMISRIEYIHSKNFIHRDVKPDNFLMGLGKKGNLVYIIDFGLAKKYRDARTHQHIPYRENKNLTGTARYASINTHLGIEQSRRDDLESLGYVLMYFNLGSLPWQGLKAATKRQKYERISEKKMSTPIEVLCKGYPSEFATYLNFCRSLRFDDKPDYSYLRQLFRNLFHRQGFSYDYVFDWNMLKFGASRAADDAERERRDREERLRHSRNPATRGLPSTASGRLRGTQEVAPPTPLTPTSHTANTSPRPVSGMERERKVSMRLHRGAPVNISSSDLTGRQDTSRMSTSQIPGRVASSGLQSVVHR", "experiment": "HotSpot kinase assay", "conditions": "read-out: % Enzyme Activity (relative to DMSO control), 10 uM"}, "[18]": {"target": "CDK2/CYCLIN E (Homo sapiens, UniProt P24941)", "experiment": "HotSpot kinase assay", "conditions": "read-out: % Enzyme Activity (relative to DMSO control), 10 uM"}, "[19]": {"target": "ALK6/BMPR1B (Homo sapiens, UniProt O00238)", "experiment": "HotSpot kinase assay", "conditions": "read-out: % Enzyme Activity (relative to DMSO control), 10 uM"}, "[20]": {"target": "AMPK(A1/B1/G2) (Homo sapiens, UniProt Q13131)", "experiment": "HotSpot kinase assay", "conditions": "read-out: % Enzyme Activity (relative to DMSO control), 10 uM"}, "[21]": {"target": "MEK5 (Homo sapiens, UniProt Q13163)", "experiment": "HotSpot kinase assay", "conditions": "read-out: % Enzyme Activity (relative to DMSO control), 10 uM"}, "[22]": {"target": "DMPK2 (Homo sapiens, UniProt Q6DT37)", "experiment": "HotSpot kinase assay", "conditions": "read-out: % Enzyme Activity (relative to DMSO control), 10 uM"}, "[23]": {"target": "EPHA4 (Homo sapiens, UniProt P54764)", "experiment": "HotSpot kinase assay", "conditions": "read-out: % Enzyme Activity (relative to DMSO control), 10 uM"}, "[24]": {"system": "HEK-293 cells transfected with GFP-TIFA", "experiment": "DF-006-induced TIFAsome formation"}, "[25]": {"target": "PKAcb (Homo sapiens, UniProt P22694)", "experiment": "HotSpot kinase assay", "conditions": "read-out: % Enzyme Activity (relative to DMSO control), 10 uM"}, "[26]": {"target": "GSK3b (Homo sapiens, UniProt P49841)", "experiment": "HotSpot kinase assay", "conditions": "read-out: % Enzyme Activity (relative to DMSO control), 10 uM"}, "[27]": {"target": "IR (Homo sapiens, UniProt P06213)", "experiment": "HotSpot kinase assay", "conditions": "read-out: % Enzyme Activity (relative to DMSO control), 10 uM"}, "[28]": {"target": "RIPK4 (Homo sapiens, UniProt P57078)", "sequence (P57078 whole entry)": "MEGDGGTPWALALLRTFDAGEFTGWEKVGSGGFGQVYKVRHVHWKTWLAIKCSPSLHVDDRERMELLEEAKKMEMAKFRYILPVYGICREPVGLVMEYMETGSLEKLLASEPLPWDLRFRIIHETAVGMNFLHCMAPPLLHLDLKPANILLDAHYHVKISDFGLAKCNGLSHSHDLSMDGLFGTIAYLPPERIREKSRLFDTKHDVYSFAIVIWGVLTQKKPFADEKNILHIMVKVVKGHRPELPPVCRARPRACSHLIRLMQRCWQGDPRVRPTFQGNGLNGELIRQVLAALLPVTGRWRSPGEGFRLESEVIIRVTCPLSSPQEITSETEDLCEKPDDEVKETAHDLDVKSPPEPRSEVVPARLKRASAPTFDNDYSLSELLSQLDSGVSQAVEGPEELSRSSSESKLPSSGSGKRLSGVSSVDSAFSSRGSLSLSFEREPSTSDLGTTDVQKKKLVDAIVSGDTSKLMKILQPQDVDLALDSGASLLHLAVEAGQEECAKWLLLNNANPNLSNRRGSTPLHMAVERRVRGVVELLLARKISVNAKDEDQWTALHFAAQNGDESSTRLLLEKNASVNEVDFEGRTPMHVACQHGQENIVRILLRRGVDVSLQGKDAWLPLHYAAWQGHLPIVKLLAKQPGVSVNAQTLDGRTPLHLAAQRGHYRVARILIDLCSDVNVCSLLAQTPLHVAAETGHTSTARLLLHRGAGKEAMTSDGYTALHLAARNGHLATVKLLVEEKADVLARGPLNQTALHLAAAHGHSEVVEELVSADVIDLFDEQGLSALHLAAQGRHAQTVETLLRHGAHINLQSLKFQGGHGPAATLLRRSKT", "experiment": "HotSpot kinase assay", "conditions": "read-out: % Enzyme Activity (relative to DMSO control), 10 uM"}, "[29]": {"target": "AURORA C (Homo sapiens, UniProt Q9UQB9)", "experiment": "HotSpot kinase assay", "conditions": "read-out: % Enzyme Activity (relative to DMSO control), 10 uM"}, "[30]": {"target": "MASTL (Homo sapiens, UniProt Q96GX5)", "sequence (Q96GX5 whole entry)": "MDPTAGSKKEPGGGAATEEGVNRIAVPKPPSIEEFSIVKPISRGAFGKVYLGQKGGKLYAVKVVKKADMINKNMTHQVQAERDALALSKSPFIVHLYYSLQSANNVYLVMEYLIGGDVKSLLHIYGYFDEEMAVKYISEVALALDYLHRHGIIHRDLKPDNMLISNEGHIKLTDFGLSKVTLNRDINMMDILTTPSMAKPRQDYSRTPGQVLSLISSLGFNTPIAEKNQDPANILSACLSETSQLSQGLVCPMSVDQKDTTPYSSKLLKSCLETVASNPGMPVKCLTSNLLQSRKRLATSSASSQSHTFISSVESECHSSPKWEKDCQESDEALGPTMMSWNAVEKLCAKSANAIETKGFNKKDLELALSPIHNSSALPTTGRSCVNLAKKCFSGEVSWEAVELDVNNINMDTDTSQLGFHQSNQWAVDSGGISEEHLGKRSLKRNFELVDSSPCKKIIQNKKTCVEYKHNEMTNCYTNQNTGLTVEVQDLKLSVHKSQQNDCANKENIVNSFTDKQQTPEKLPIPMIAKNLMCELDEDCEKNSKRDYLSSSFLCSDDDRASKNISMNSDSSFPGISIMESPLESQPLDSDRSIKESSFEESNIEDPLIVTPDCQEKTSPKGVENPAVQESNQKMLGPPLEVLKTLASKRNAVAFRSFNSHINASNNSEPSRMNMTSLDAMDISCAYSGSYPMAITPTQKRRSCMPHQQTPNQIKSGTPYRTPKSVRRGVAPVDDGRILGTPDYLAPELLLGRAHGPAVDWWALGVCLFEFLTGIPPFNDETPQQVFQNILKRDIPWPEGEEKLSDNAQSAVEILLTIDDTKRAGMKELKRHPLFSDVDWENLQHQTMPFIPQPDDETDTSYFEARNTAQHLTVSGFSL", "experiment": "HotSpot kinase assay", "conditions": "read-out: % Enzyme Activity (relative to DMSO control), 10 uM"}, "[31]": {"target": "DDR2 (Homo sapiens, UniProt Q16832)", "experiment": "HotSpot kinase assay", "conditions": "read-out: % Enzyme Activity (relative to DMSO control), 10 uM"}, "[32]": {"target": "p70S6Kb/RPS6KB2 (Homo sapiens, UniProt Q9UBS0)", "experiment": "HotSpot kinase assay", "conditions": "read-out: % Enzyme Activity (relative to DMSO control), 10 uM"}, "[33]": {"target": "ERK1 (Homo sapiens, UniProt P27361)", "sequence (P27361 whole entry)": "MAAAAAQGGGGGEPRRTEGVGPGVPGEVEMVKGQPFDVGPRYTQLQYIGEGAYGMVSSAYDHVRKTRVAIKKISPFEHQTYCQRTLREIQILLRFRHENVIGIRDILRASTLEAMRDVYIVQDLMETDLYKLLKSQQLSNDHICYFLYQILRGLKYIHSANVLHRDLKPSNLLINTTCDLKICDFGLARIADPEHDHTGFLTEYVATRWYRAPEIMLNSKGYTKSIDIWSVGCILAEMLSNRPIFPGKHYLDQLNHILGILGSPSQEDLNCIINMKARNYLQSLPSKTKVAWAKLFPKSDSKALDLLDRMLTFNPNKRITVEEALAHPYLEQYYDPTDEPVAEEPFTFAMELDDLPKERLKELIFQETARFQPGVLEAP", "experiment": "HotSpot kinase assay", "conditions": "read-out: % Enzyme Activity (relative to DMSO control), 10 uM"}, "[34]": {"target": "EIF2AK1 (Homo sapiens, UniProt Q9BQI3)", "experiment": "HotSpot kinase assay", "conditions": "read-out: % Enzyme Activity (relative to DMSO control), 10 uM"}, "[35]": {"target": "GRK1 (Homo sapiens, UniProt Q15835)", "experiment": "HotSpot kinase assay", "conditions": "read-out: % Enzyme Activity (relative to DMSO control), 10 uM"}, "[36]": {"target": "TSSK2 (Homo sapiens, UniProt Q96PF2)", "experiment": "HotSpot kinase assay", "conditions": "read-out: % Enzyme Activity (relative to DMSO control), 10 uM"}, "[37]": {"target": "TTBK1 (Homo sapiens, UniProt Q5TCY1)", "sequence (Q5TCY1 whole entry)": "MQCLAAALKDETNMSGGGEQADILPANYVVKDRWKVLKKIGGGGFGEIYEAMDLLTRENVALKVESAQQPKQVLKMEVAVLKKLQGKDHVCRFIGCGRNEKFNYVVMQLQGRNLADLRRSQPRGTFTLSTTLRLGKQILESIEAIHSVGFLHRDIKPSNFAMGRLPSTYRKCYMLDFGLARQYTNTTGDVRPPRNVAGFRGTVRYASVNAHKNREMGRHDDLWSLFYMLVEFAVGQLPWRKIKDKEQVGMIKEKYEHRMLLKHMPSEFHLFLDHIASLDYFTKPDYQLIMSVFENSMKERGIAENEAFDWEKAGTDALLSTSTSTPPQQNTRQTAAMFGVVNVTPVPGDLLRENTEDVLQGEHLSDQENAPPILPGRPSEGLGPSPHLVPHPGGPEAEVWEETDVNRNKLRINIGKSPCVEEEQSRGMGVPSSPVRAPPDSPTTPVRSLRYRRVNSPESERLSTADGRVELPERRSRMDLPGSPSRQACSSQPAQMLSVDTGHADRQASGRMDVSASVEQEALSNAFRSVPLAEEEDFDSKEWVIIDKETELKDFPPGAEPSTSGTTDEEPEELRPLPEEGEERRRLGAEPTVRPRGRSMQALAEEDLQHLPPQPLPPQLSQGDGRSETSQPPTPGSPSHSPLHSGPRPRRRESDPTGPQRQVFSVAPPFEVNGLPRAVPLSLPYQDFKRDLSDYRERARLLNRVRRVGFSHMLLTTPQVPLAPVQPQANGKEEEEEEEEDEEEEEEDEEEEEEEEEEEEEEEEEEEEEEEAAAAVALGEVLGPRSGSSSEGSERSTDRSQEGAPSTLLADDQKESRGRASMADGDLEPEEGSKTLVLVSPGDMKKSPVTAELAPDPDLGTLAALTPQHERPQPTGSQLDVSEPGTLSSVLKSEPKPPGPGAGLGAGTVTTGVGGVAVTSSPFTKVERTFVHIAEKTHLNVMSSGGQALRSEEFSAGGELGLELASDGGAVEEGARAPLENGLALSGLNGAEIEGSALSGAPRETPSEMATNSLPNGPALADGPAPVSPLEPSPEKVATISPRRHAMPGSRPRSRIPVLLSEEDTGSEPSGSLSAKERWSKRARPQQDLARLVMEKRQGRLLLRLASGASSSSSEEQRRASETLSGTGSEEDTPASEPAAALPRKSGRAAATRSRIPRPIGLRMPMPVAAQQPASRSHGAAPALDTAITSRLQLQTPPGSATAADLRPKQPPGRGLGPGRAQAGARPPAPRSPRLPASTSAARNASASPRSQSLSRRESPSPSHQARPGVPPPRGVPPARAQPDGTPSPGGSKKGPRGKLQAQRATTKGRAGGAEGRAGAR", "experiment": "HotSpot kinase assay", "conditions": "read-out: % Enzyme Activity (relative to DMSO control), 10 uM"}, "[38]": {"target": "MEKK1 (Homo sapiens, UniProt Q13233)", "experiment": "HotSpot kinase assay", "conditions": "read-out: % Enzyme Activity (relative to DMSO control), 10 uM"}, "[39]": {"target": "BMPR2 (Homo sapiens, UniProt Q13873)", "experiment": "HotSpot kinase assay", "conditions": "read-out: % Enzyme Activity (relative to DMSO control), 10 uM"}}, "note": "Values joined by “and” are separate entries in the source; they are usually repeats but may differ in a detail not shown here. Identical values can stand only once."}
{"compound": "C#C[C@@](C)(c1ccc(Cl)cc1)c1csc(NC(=O)c2c(F)cc(N3CCNCC3)cc2F)n1", "note": "(stereo in doubt) [DF-003]", "values": [{"measurement": "remaining activity at 10 µM", "setting": "[1]", "value": 105, "unit": "%"}, {"measurement": "remaining activity at 10 µM", "setting": "[2]", "value": 107, "unit": "%"}, {"measurement": "remaining activity at 10 µM", "setting": "[3]", "value": 89.9, "unit": "%"}, {"measurement": "remaining activity at 10 µM", "setting": "[4]", "value": 81.8, "unit": "%"}, {"measurement": "remaining activity at 10 µM", "setting": "[5]", "value": 87.7, "unit": "%"}, {"measurement": "remaining activity at 10 µM", "setting": "[6]", "value": 47.9, "unit": "%"}, {"measurement": "remaining activity at 10 µM", "setting": "[7]", "value": 152, "unit": "%"}, {"measurement": "remaining activity at 10 µM", "setting": "[8]", "value": 103, "unit": "%"}, {"measurement": "remaining activity at 10 µM", "setting": "[9]", "value": 92.8, "unit": "%"}, {"measurement": "remaining activity at 10 µM", "setting": "[10]", "value": 93, "unit": "%"}, {"measurement": "remaining activity at 10 µM", "setting": "[11]", "value": 94.6, "unit": "%"}, {"measurement": "remaining activity at 10 µM", "setting": "[12]", "value": 84.3, "unit": "%"}, {"measurement": "remaining activity at 10 µM", "setting": "[13]", "value": 52.2, "unit": "%"}, {"measurement": "remaining activity at 10 µM", "setting": "[14]", "value": 109, "unit": "%"}, {"measurement": "remaining activity at 10 µM", "setting": "[15]", "value": 85.4, "unit": "%"}, {"measurement": "remaining activity at 10 µM", "setting": "[16]", "value": 119, "unit": "%"}, {"measurement": "remaining activity at 10 µM", "setting": "[17]", "value": 81.5, "unit": "%"}, {"measurement": "remaining activity at 10 µM", "setting": "[18]", "value": 90.1, "unit": "%"}, {"measurement": "remaining activity at 10 µM", "setting": "[19]", "value": 123, "unit": "%"}, {"measurement": "remaining activity at 10 µM", "setting": "[20]", "value": 114, "unit": "%"}, {"measurement": "remaining activity at 10 µM", "setting": "[21]", "value": 109, "unit": "%"}, {"measurement": "remaining activity at 10 µM", "setting": "[22]", "value": 74, "unit": "%"}, {"measurement": "remaining activity at 10 µM", "setting": "[23]", "value": 161, "unit": "%"}, {"measurement": "effect on DF-006-induced TIFAsome formation", "setting": "[24]; 10 nM to 1 μM, 1 μM DF-006 1 h", "value": "potently suppressed DF-006-induced TIFAsome formation"}, {"measurement": "Cells with TIFAsomes /GFP positive cells (%)", "setting": "[24]; 200 nM DF-003+1 μM DF-006", "value": "2.74% and 2.86% and 1.45% and 4.74% and 3.09%"}, {"measurement": "Cells with TIFAsomes /GFP positive cells (%)", "setting": "[24]; 1 μM DF-003+1 μM DF-006", "value": "1.25% and 0% and 3.05% and 2.92% and 5.22%"}, {"measurement": "remaining activity at 10 µM", "setting": "[25]", "value": 91.6, "unit": "%"}, {"measurement": "remaining activity at 10 µM", "setting": "[26]", "value": 93.3, "unit": "%"}, {"measurement": "remaining activity at 10 µM", "setting": "[27]", "value": 104, "unit": "%"}, {"measurement": "remaining activity at 10 µM", "setting": "[28]", "value": 48.3, "unit": "%"}, {"measurement": "remaining activity at 10 µM", "setting": "[29]", "value": 91.7, "unit": "%"}, {"measurement": "remaining activity at 10 µM", "setting": "[30]", "value": 90.6, "unit": "%"}, {"measurement": "remaining activity at 10 µM", "setting": "[31]", "value": 84.6, "unit": "%"}, {"measurement": "remaining activity at 10 µM", "setting": "[32]", "value": 58.1, "unit": "%"}, {"measurement": "remaining activity at 10 µM", "setting": "[33]", "value": 115, "unit": "%"}, {"measurement": "remaining activity at 10 µM", "setting": "[34]", "value": 91.9, "unit": "%"}, {"measurement": "remaining activity at 10 µM", "setting": "[35]", "value": 99.3, "unit": "%"}, {"measurement": "remaining activity at 10 µM", "setting": "[36]", "value": 101, "unit": "%"}, {"measurement": "remaining activity at 10 µM", "setting": "[37]", "value": 84.2, "unit": "%"}, {"measurement": "remaining activity at 10 µM", "setting": "[38]", "value": 99.9, "unit": "%"}, {"measurement": "remaining activity at 10 µM", "setting": "[39]", "value": 113, "unit": "%"}]}
